Measured values published in patent US20080139581A1 (priority 2005, published 2008).

For CCCCCCCCc1c(CC)nc2nc(Cl)nn2c1N, the melting point was 202 to 203 °C.
